In patent US20100189596A1, “COMPOSITE EMULSIFIER, AN EMULSION PREPARED FROM IT AND THE PREPARATION METHOD THEREOF” (SHENYANG PHARMACEUTICAL UNIVERSITY, priority 2007, published 2010):
Marks after values point to notes of the source that are not given here.

Tested on: adriamycin-induced myocardial injury model in rat
Test: Protective effects on adriamycin-induced myocardial injury model in rat
Assay type: in vivo, Wistar rats
From the text: Coenzyme Q10 can reduce the cardiotoxicity induced by adriamycin. In this experiment, to adriamycin-induced myocardial injury model in rat was constructed for detecting the effects of coenzyme Q10 nanoemulsion of protecting rats from adriamycin-induced myocardial injury.
40 Wistar rats (250±15 g, F/M=1:1) were randomly divided into five groups (8 animals each group): negative control group, ADM group, ADM+coenzyme Q10 (low dosage) group, ADM+coenzyme Q10 (medium dosage) group and ADM+coenzyme Q10 (high dosage) group. The control group received intraperitoneal injection of physiological saline at 10 mL/kg/d for 9 days. The ADM group received intraperitoneal injection of ADM at 3 mg/kg every other day for 5 times in total (9 days). The ADM+coenzyme Q10 (low, medium and high dosages) groups respectively received tail vein injection of coenzyme Q10 at 1.5, 3.0 and 6.0 mg/kg/d for 9 days, and ADM was administered at 3 mg/kg every other day for 5 times in total (9 days) (10 min after coenzyme Q10 injection, intraperitoneal injection of ADM 3 mg/kg was performed). The rats were sacrificed on the 10th day for histopathological examination and detection for the contents of malonaldehyde and SOD. The histopathological examination was performed by the steps of taking myocardial tissue from the left ventricular, fixing with 10% formaldehyde, slicing according to the conventional methods, and staining with HE.

[1] = ADM group, 3 mg/kg i.p. x5, n = 8
[2] = ADM group: ADM 3 mg/kg i.p. every other day, 5 times, n = 8

## COc1cccc2c1C(=O)c1c(O)c3c(c(O)c1C2=O)C[C@@](O)(C(=O)CO)C[C@@H]3O[C@H]1C[C@H](N)[C@H](O)[C@H](C)O1 [ADM, adriamycin]
ADM group (FIG. 2) compared with normal conditions
  alterations of rat electrocardiogram: absent P-wave, flattened T-wave, obviously reduced ST-T segment, and decreased QRS waves
[1]
  myocardial MDA (nmol/mg prot): 8.99 ± 1.17^a nmol/mg prot
  myocardial SOD (U/mg prot): 330.02 ± 15.39^a U/mg prot
[2]
  Pathological classification of myocardial injury: number of rats in grade II: 3
  Pathological classification of myocardial injury: number of rats in grade III: 5
Rats received intraperitoneal injection of ADM
  myocardial tissue slice (stained with HE): seriously injured
